US20250360122A1, “USE OF NAMPT INHIBITORS IN THE MANUFACTURE OF MEDICAMENTS FOR PREVENTING AND/OR TREATING PIGMENTED VILLONODULAR SYNOVITIS” (WEST CHINA HOSPITAL, SICHUAN UNIVERSITY, priority 2024, published 2025)

Columns and labels:
Type in all cases: in vivo, female NOD-SCID mice
PVNS grafts [1] = test: PVNS-PDX tumor model, tumor growth / final tumor size; conditions: PVNS-PDX mice, 14 days of FK866 treatment, 30 mg/kg i.p.
Excerpt: (§1) A PVNS-human-derived tissue xenograft (PDX) tumor model was established using female NOD-SCID gnotobiotic mice aged 5 to 6 weeks. The human-derived tissue was sourced from the tumor tissue of patients with a confirmed diagnosis of PVNS who underwent surgery. During the surgery, viable synovial tissue was collected and then transplanted to construct the PVNS-PDX tumor model. The mice were purchased from Vital River Laboratory Animal Technology Co., Ltd. (Beijing, China) and were housed in micro-isolator cages under specific pathogen-free conditions. Tumor grafts were prepared using sterile SmartFlow (Airtech, China). After removing the necrotic tissue, the tumor tissue was rinsed three times with physiological saline. Subsequently, the tumor mass was segmented into small pieces (diameter ranging from 1.0 to 3.0 mm) using a surgical blade. The tumor tissue (graft) was suspended in serum-free Dulbecco's Modified Eagle Medium and then cryopreserved for implantation. The surgery was carried out by using an anesthesia machine. Mice were anesthetized with 2.5% isoflurane and kept in a lateral position. The skin was sterilely prepared using surgical-grade povidone-iodine, and a small dorsal midline incision (approximately 20.0 mm) was made in the kidney area. […] Tumor size was measured under a microscope and calculated using the formula […], where L is the length and W is the width.

JUND [2] = test: Western blot of JUND in synovium of PVNS-PDX mice; conditions: FK866 30 mg/kg i.p. twice daily, four consecutive days weekly, two weeks, compared to the PDX group
Excerpt: A PVNS-human-derived tissue xenograft (PDX) tumor model was established using female NOD-SCID gnotobiotic mice aged 5 to 6 weeks. The human-derived tissue was sourced from the tumor tissue of patients with a confirmed diagnosis of PVNS who underwent surgery. During the surgery, viable synovial tissue was collected and then transplanted to construct the PVNS-PDX tumor model. The mice were purchased from Vital River Laboratory Animal Technology Co., Ltd. (Beijing, China) and were housed in micro-isolator cages under specific pathogen-free conditions. Tumor grafts were prepared using sterile SmartFlow (Airtech, China). After removing the necrotic tissue, the tumor tissue was rinsed three times with physiological saline. […] Tumor size was measured under a microscope and calculated using the formula […], where L is the length and W is the width.
Synovial tissue lysates were prepared using RIPA buffer supplemented with PMSF, incubated on ice, and physically sheared for 25 min. The proteins were extracted, and their concentration was measured using the BCA protein assay kit (Beyotime, P0011). […] Band intensity was quantified using ImageJ software version 1.39 V. The primary antibodies used were: anti-NAMPT (1:1000, ABclonal, A0256); anti-ITGA5 (1:1000, ABclonal, A19069); anti-JUND (1:1000, ABclonal, A5496); and anti-β-actin (1:1000, ABclonal, AC006).

JUND [3] = test: Immunohistochemistry of JUND in PVNS-PDX mice; conditions: FK866 30 mg/kg i.p. twice daily, four consecutive days weekly, two weeks, compared to the PDX group
Excerpt: as §1, with “machine.” for “machine. Mice were anesthetized with 2.5% isoflurane and kept in a lateral position. The skin was sterilely prepared using surgical-grade povidone-iodine, and a small dorsal midline incision (approximately 20.0 mm) was made in the kidney area.”
The synovial tissue was fixed in 10% neutral buffered formalin for two days, followed by dehydration with a series of graded ethanol. […] The integrated optical density values of positive staining were evaluated using ImageJ software.

PVNS grafts [4] = test: Vascular permeability assay (Evans blue) in PVNS grafts; conditions: PVNS-PDX mice, after 14 days of FK866 30 mg/kg i.p.; mean±S.E.M.; p<0.001 vs. PDX group (14.93±2.003)
Excerpt: as §1, with “machine.” for “machine. Mice were anesthetized with 2.5% isoflurane and kept in a lateral position. The skin was sterilely prepared using surgical-grade povidone-iodine, and a small dorsal midline incision (approximately 20.0 mm) was made in the kidney area.”
[…] The concentration of Evans blue in the tissue extract was measured using a microplate reader at a wavelength of 630 nm and a standard curve of Evans blue concentration. […]

fibrinogen (FGB) = test: Immunofluorescence staining of FGB and CD31 in PVNS-PDX mice; conditions: FK866 30 mg/kg i.p., in contrast to the PDX group
Excerpt: as §1, with “machine.” for “machine. Mice were anesthetized with 2.5% isoflurane and kept in a lateral position. The skin was sterilely prepared using surgical-grade povidone-iodine, and a small dorsal midline incision (approximately 20.0 mm) was made in the kidney area.”
The frozen tissue sections were thawed at room temperature for 1 hour. […] The tissue sections were observed using a fluorescence microscope, and the fluorescence intensity was assessed using ImageJ. […]

SMILES: O=C(/C=C/c1cccnc1)NCCCCC1CCN(C(=O)c2ccccc2)CC1 [FK866]
- Tumor growth (PVNS grafts [1]): significantly inhibited
- JUND expression (WB analysis) (JUND [2]): significant decrease
- JUND expression (IHC staining) (JUND [3]): notable reduction
- Evan's blue dye concentration in PVNS grafts (vascular leakage) (PVNS grafts [4]): 4.040±1.618 ng Evan's blue dye/mg tissue
- FGB deposition around the blood vessels (immunofluorescence) (fibrinogen (FGB)): significantly reduced
